Molecules are shown by their SMILES.

Consider four compounds from patent US10208077B1, “Aesculin lipoic acid ester with antioxidant activity and a method of preparing the same” (SHAANXI UNIVERSITY OF SCIENCE AND TECHNOLOGY, priority 2018, dated 2019).

A short description of the first assay: DPPH radical scavenging activity assay. The assay is classed as biochemical. The note with it: 1.82 ppm; 0.2 mmol/L DPPH, 30 min, room temperature, dark, absorbance at 517 nm. From the text: The Antioxidant Activity of the Aesculin Lipoic Acid Ester Measured by a DPPH Radical Scavenging Activity Assay
2,2-Diphenyl-1-picryl hydrazyl (DPPH) is an organic compound composed of a stable organic radical. In the DPPH molecule, due to the presence of multiple electron-withdrawing —NO2 and large π bonds of the benzene ring, nitrogen free radical is stabilized. Its methanol solution is purple and has a maximum absorption peak at 517 nm. After the addition of an antioxidant, DPPH captures an electron to be paired with the free electron, and the purple fades and turns into a yellow substance. The absorption at 517 nm disappears, and the degree of fading is quantitatively related to the number of electrons it captures. Based on this principle, a spectrophotometer is used to detect the change of the absorbance of the DPPH radical and the sample solution, and the ability of the sample to provide hydrogen atoms and scavenge free radicals can be measured.
Preparation of DPPH solution: measuring exact amount of 2,2-diphenyl-1-picryl hydrazyl (DPPH) and dissolving in methanol to prepare a 0.2 mmol/L DPPH solution, stored at 0° C. in dark.
Preparation of sample solutions: the aesculin lipoic acid ester was diluted with a concentration gradient of 1.82, 7.28, 24.2, 48.4, 72.6, 96.8, 242, 484, 726, 968 ppm with acetonitrile to prepare sample solutions to be tested. Control samples (vitamin C, aesculin, lipoic acid, a mixture of aesculin and lipoic acid) were diluted with methanol in the same manner in the same concentration gradient to obtain the corresponding four groups of control solutions.
Measuring the Scavenging Activity of the Sample Solutions:
2 mL of the sample solutions at each concentration gradient was taken, 2 mL 0.2 mmol/L DPPH solution was added, the mixture was mixed and reacted at room temperature in dark for 30 minutes, and methanol was then added to adjust final volume. The absorbance Ai was measured at 517 nm. 2 mL control solution and 2 mL methanol were mixed, and the absorbance Aj was measured. 2 mL DPPH solution and 2 mL methanol were mixed, and the absorbance A0 was measured. The scavenging activity of the sample solution and control solutions is calculated according to the following calculation formula. Scavenging activity (%)=100×[1−(Ai−Aj)/A0]
Background: The DPPH test is a chemical assay of radical scavenging.
On to `O=C1O[C@H]([C@@H](O)CO)C(O)=C1O` [Vitamin C, vitamin C], for which the “Scavenging activity (%)” value stood at 23.86%.

As for `O=C(CCCC[C@@H]1CCSS1)OCC1OC(Oc2cc3ccc(=O)oc3cc2O)C(O)C(O)C1O` (some centres unmarked) [Aesculin lipoic acid ester, aesculin lipoic acid ester], the “Scavenging activity (%)” value came out at 30.93%.

Take `O=C(O)CCCC[C@@H]1CCSS1` (racemic) [Lipoic acid]: the “Scavenging activity (%)” value came to 0.86%.

As for `O=c1ccc2cc(O[C@@H]3O[C@H](CO)[C@@H](O)[C@H](O)[C@H]3O)c(O)cc2o1` [Aesculin], the “Scavenging activity (%)” value is 3.44%.

The assay is the same for the next values; noted with them: 7.28 ppm; 0.2 mmol/L DPPH, 30 min, room temperature, dark, absorbance at 517 nm.
Regarding `O=C1O[C@H]([C@@H](O)CO)C(O)=C1O` [Vitamin C, vitamin C], the “Scavenging activity (%)” value is 72.45%.

As for `O=C(CCCC[C@@H]1CCSS1)OCC1OC(Oc2cc3ccc(=O)oc3cc2O)C(O)C(O)C1O` (some centres unmarked) [Aesculin lipoic acid ester, aesculin lipoic acid ester], the “Scavenging activity (%)” value is 42.73%.

As for `O=C(O)CCCC[C@@H]1CCSS1` (racemic) [Lipoic acid], the “Scavenging activity (%)” value is on record as 1.14%.

In the case of `O=c1ccc2cc(O[C@@H]3O[C@H](CO)[C@@H](O)[C@H](O)[C@H]3O)c(O)cc2o1` [Aesculin], the “Scavenging activity (%)” value stood at 3.53%.

Staying with this assay, now noted: 24.2 ppm; 0.2 mmol/L DPPH, 30 min, room temperature, dark, absorbance at 517 nm.
As for `O=C1O[C@H]([C@@H](O)CO)C(O)=C1O` [Vitamin C, vitamin C], the “Scavenging activity (%)” value is listed as 96.70%.

As to `O=C(CCCC[C@@H]1CCSS1)OCC1OC(Oc2cc3ccc(=O)oc3cc2O)C(O)C(O)C1O` (some centres unmarked) [Aesculin lipoic acid ester, aesculin lipoic acid ester], the “Scavenging activity (%)” value is given as 57.70%.

In the case of `O=C(O)CCCC[C@@H]1CCSS1` (racemic) [Lipoic acid], the “Scavenging activity (%)” value is listed as 1.43%.

Take `O=c1ccc2cc(O[C@@H]3O[C@H](CO)[C@@H](O)[C@H](O)[C@H]3O)c(O)cc2o1` [Aesculin]: the “Scavenging activity (%)” value is 5.12%.

The assay is the same for the next values; noted with them: 48.4 ppm; 0.2 mmol/L DPPH, 30 min, room temperature, dark, absorbance at 517 nm.
As for `O=C1O[C@H]([C@@H](O)CO)C(O)=C1O` [Vitamin C, vitamin C], the “Scavenging activity (%)” value is given as 96.99%.

In the case of `O=C(CCCC[C@@H]1CCSS1)OCC1OC(Oc2cc3ccc(=O)oc3cc2O)C(O)C(O)C1O` (some centres unmarked) [Aesculin lipoic acid ester, aesculin lipoic acid ester], the “Scavenging activity (%)” value was 72.90%.

For `O=C(O)CCCC[C@@H]1CCSS1` (racemic) [Lipoic acid], the “Scavenging activity (%)” value turned out to be 1.62%.

Regarding `O=c1ccc2cc(O[C@@H]3O[C@H](CO)[C@@H](O)[C@H](O)[C@H]3O)c(O)cc2o1` [Aesculin], the “Scavenging activity (%)” value is listed as 5.56%.

Still in this assay, the particulars now being: 72.6 ppm; 0.2 mmol/L DPPH, 30 min, room temperature, dark, absorbance at 517 nm.
For `O=C1O[C@H]([C@@H](O)CO)C(O)=C1O` [Vitamin C, vitamin C], the “Scavenging activity (%)” value is 97.58%.

As for `O=C(CCCC[C@@H]1CCSS1)OCC1OC(Oc2cc3ccc(=O)oc3cc2O)C(O)C(O)C1O` (some centres unmarked) [Aesculin lipoic acid ester, aesculin lipoic acid ester], the “Scavenging activity (%)” value was 83.5%.

Take `O=C(O)CCCC[C@@H]1CCSS1` (racemic) [Lipoic acid]: the “Scavenging activity (%)” value is 2.47%.

With `O=c1ccc2cc(O[C@@H]3O[C@H](CO)[C@@H](O)[C@H](O)[C@H]3O)c(O)cc2o1` [Aesculin], the “Scavenging activity (%)” value came to 8.12%.

Staying with this assay, now noted: 96.8 ppm; 0.2 mmol/L DPPH, 30 min, room temperature, dark, absorbance at 517 nm.
For the compound `O=C1O[C@H]([C@@H](O)CO)C(O)=C1O` [Vitamin C, vitamin C], the “Scavenging activity (%)” value is 97.77%.

Consider `O=C(CCCC[C@@H]1CCSS1)OCC1OC(Oc2cc3ccc(=O)oc3cc2O)C(O)C(O)C1O` (some centres unmarked) [Aesculin lipoic acid ester, aesculin lipoic acid ester], for which the “Scavenging activity (%)” value is 89.73%.

With `O=C(O)CCCC[C@@H]1CCSS1` (racemic) [Lipoic acid], the “Scavenging activity (%)” value is reported as 3.81%.

For the compound `O=c1ccc2cc(O[C@@H]3O[C@H](CO)[C@@H](O)[C@H](O)[C@H]3O)c(O)cc2o1` [Aesculin], the “Scavenging activity (%)” value is listed as 10.77%.

The assay is the same for the next values; noted with them: 242 ppm; 0.2 mmol/L DPPH, 30 min, room temperature, dark, absorbance at 517 nm.
Consider `O=C1O[C@H]([C@@H](O)CO)C(O)=C1O` [Vitamin C, vitamin C], for which the “Scavenging activity (%)” value was determined as 97.77%.

Regarding `O=C(CCCC[C@@H]1CCSS1)OCC1OC(Oc2cc3ccc(=O)oc3cc2O)C(O)C(O)C1O` (some centres unmarked) [Aesculin lipoic acid ester, aesculin lipoic acid ester], the “Scavenging activity (%)” value is given as 95.30%.

In the case of `O=C(O)CCCC[C@@H]1CCSS1` (racemic) [Lipoic acid], the “Scavenging activity (%)” value amounted to 8.47%.

`O=c1ccc2cc(O[C@@H]3O[C@H](CO)[C@@H](O)[C@H](O)[C@H]3O)c(O)cc2o1` [Aesculin]: the “Scavenging activity (%)” value is reported as 24.01%.

The same assay, now with this note: 484 ppm; 0.2 mmol/L DPPH, 30 min, room temperature, dark, absorbance at 517 nm.
As for `O=C1O[C@H]([C@@H](O)CO)C(O)=C1O` [Vitamin C, vitamin C], the “Scavenging activity (%)” value came out at 98.06%.

In the case of `O=C(CCCC[C@@H]1CCSS1)OCC1OC(Oc2cc3ccc(=O)oc3cc2O)C(O)C(O)C1O` (some centres unmarked) [Aesculin lipoic acid ester, aesculin lipoic acid ester], the “Scavenging activity (%)” value came out at 96.50%.

As for `O=C(O)CCCC[C@@H]1CCSS1` (racemic) [Lipoic acid], the “Scavenging activity (%)” value stood at 16.65%.

Turning to `O=c1ccc2cc(O[C@@H]3O[C@H](CO)[C@@H](O)[C@H](O)[C@H]3O)c(O)cc2o1` [Aesculin], the “Scavenging activity (%)” value was 42.54%.

Still in this assay, the particulars now being: 726 ppm; 0.2 mmol/L DPPH, 30 min, room temperature, dark, absorbance at 517 nm.
Consider `O=C1O[C@H]([C@@H](O)CO)C(O)=C1O` [Vitamin C, vitamin C], for which the “Scavenging activity (%)” value is 98.06%.

With `O=C(CCCC[C@@H]1CCSS1)OCC1OC(Oc2cc3ccc(=O)oc3cc2O)C(O)C(O)C1O` (some centres unmarked) [Aesculin lipoic acid ester, aesculin lipoic acid ester], the “Scavenging activity (%)” value is 96.83%.

With `O=C(O)CCCC[C@@H]1CCSS1` (racemic) [Lipoic acid], the “Scavenging activity (%)” value amounted to 20.17%.

As for `O=c1ccc2cc(O[C@@H]3O[C@H](CO)[C@@H](O)[C@H](O)[C@H]3O)c(O)cc2o1` [Aesculin], the “Scavenging activity (%)” value was 58.34%.

The same assay, now with this note: 968 ppm; 0.2 mmol/L DPPH, 30 min, room temperature, dark, absorbance at 517 nm.
In the case of `O=C1O[C@H]([C@@H](O)CO)C(O)=C1O` [Vitamin C, vitamin C], the “Scavenging activity (%)” value is recorded as 98.06%.

Take `O=C(CCCC[C@@H]1CCSS1)OCC1OC(Oc2cc3ccc(=O)oc3cc2O)C(O)C(O)C1O` (some centres unmarked) [Aesculin lipoic acid ester, aesculin lipoic acid ester]: the “Scavenging activity (%)” value is 96.94%.

As to `O=C(O)CCCC[C@@H]1CCSS1` (racemic) [Lipoic acid], the “Scavenging activity (%)” value is 21.88%.

Turning to `O=c1ccc2cc(O[C@@H]3O[C@H](CO)[C@@H](O)[C@H](O)[C@H]3O)c(O)cc2o1` [Aesculin], the “Scavenging activity (%)” value is 70.70%.

Staying with this assay, now noted: achieved at a lower concentration than aesculin, lipoic acid and their mixture.
Take `O=C(CCCC[C@@H]1CCSS1)OCC1OC(Oc2cc3ccc(=O)oc3cc2O)C(O)C(O)C1O` (some centres unmarked) [Aesculin lipoic acid ester, aesculin lipoic acid ester]: the “free radical clearance rate” value is listed as “more than 90%”.
